Biological target: T1, human secreted PLA2 (Homo sapiens, UniProt P14555)
T1 sequence (P14555 21-144): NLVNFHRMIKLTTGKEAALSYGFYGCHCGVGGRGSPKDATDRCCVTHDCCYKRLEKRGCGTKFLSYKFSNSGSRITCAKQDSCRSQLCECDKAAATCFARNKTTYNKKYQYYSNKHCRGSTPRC
Assay: chromogenic assay of recombinant human secreted phospholipase A2 inhibition (Assay Example 1)
Format: biochemical
Settings: mean of 3-5 tests; 40° C., 30 minutes, pH 7.5, 405 nanometers; read-out: Inhibition of human secreted PLA2 IC50 ± mean deviation (3-5 tests)
Source text: The assay described herein has been adapted for high volume screening using 96 well microtiter plates. A general description of this assay method is found in the article, "Analysis of Human Synovial Fluid Phospholipase A2 on Short Chain Phosphatidylcholine-Mixed Micelles: Development of a Spectrophotometric Assay Suitable for a Microtiterplate Reader", by Laure J. Reynolds, Lori L. […] Reagents, the disclosure of which is incorporated herein by reference. REACTION BUFFER CaCl2.2H20 (1.47 g/L) KCl (7.455 g/L) Bovine Serum Albumin (fatty acid free) (1 g/L) (Sigma A-7030, product of Sigma Chemical Co. St. Louis Mo., USA) TRIS HCl (3.94 g/L) pH 7.5 (adjust with NaOH) ENZYME BUFFER […] 0.2 NaCl Adjust pH to 4.5 with acetic acid DTNB […] RACEMIC DIHEPTANOYL THIO - PC […] TRITON X-100™ prepare at 6.249 mg/ml in reaction buffer to equal […]. REACTION MIXTURE A measured volume of racemic dipheptanoyl thio PC supplied in chloroform at a concentration of 100 mg/ml is taken to dryness and redissolved in 10 millimolar TRITON X-100™ nonionic detergent aqueous solution. Reaction Buffer is added to the solution, then DTNB to give the Reaction Mixture. The reaction mixture thus obtained contains 1 mM diheptanoly thio-PC substrate, 0.29 mM Triton X-100™ detergent, and 0.12 mM DTMB in a buffered aqueous solution at pH 7.5. Assay Procedure: 1. Add 0.2 ml reaction mixture to all wells; 2. Add 10 ul test compound (or solvent blank) to appropriate wells, mix 20 seconds; 3. Add 50 nanograms of sPLA2 (10 microliters) to appropriate wells; 4. Incubate plate at 40° C. for 30 minutes; […] Read absorbance of wells at 405 nanometers with an automatic plate reader. All compounds were tested in triplicate. Typically, compounds were tested at a final concentration of 5 ug/ml. […] Lack of color development at 405 nanometers evidenced inhibition. Compounds initially found to be active were reassayed to confirm their activity and, if sufficiently active, IC50 values were determined. […] In all cases, % inhibition measured at 405 nanometers generated by enzyme reactions containing inhibitors relative to the uninhibited control reactions was determined. Each sample was titrated in triplicate and result values were averaged for plotting and calculation of IC50 values. […] IC50 values were determined at least three times for each compound tested.

| IC50 | Compound |
| --- | --- |
| 1020 ± 260 nM | Cc1c(CC(=O)NN)c2ccc(Br)cc2n1Cc1ccccc1 [Example 54, 6-Bromo-2-methyl-1-(phenylmethyl)-1H-indole-3-acetic acid hydrazide] |
| 860 nM | Cc1c(CC(=O)NN)c2cc(OCCCC(=O)O)ccc2n1Cc1ccccc1 [Example 71, 4-[[3-(2-Hydrazino-2-oxoethyl)-2-methyl-1-(phenylmethyl)-1H-indol-5-yl]oxy]butanoic acid] |
| 740 ± 150 nM | Cc1c(CC(=O)NN)c2cc(Cl)ccc2n1Cc1ccccc1 [Example 48, 5-Chloro-2-methyl-1-(phenylmethyl)-1H-indole-3-acetic acid hydrazide] |
| 9960 ± 5610 nM | 5-Methoxy-1-(phenylmethyl)-1H-indole-3-butanoic acid hydrazide [Example 66] |
| 360 ± 170 nM | Cc1c(CC(=O)NN)c2cc(OCc3ccc4ccccc4n3)ccc2n1Cc1ccccc1 [Example 62, 2-Methyl-1-(phenylmethyl)-5-[(2-quinolyl)methoxy]-1H-indole-3-acetic acid hydrazide] |
| 2060 ± 940 nM | Cc1c(CC(=O)NN)c2c(-c3ccccc3)cccc2n1Cc1ccccc1 [Example 55, 2-Methyl-4-phenyl-1-(phenylmethyl)-1H-indole-3-acetic acid hydrazide] |
| 1490 ± 340 nM | Cc1c(CC(=O)NN)c2cc(F)ccc2n1Cc1ccccc1 [Example 47, 5-Fluoro-2-methyl-1-(phenylmethyl)-1H-indole-3-acetic acid hydrazide] |
| 1020 ± 350 nM | Cc1c(CC(=O)NN)c2cc(C(C)(C)C)ccc2n1Cc1ccccc1 [Example 60, 5-tert-Butyl-2-methyl-1-(phenylmethyl)-1H-indole-3-acetic acid hydrazide] |
| 860 ± 200 nM | Cc1c(CC(=O)NN)c2cc(-c3ccccc3)ccc2n1Cc1ccccc1 [Example 56, 2-Methyl-5-phenyl-1-(phenylmethyl)-1H-indole-3-acetic acid hydrazide] |
| 2700 ± 380 nM | Cc1c(CC(=O)NN)c2cc(C(=O)NN)ccc2n1Cc1cccc(Cl)c1 [Example 69, 1-[(3-Chlorophenyl)methyl]-5-hydrazinocarbonyl-2-methyl-1H -indole-3-acetic acid hydrazide] |
| 1020 ± 430 nM | Cc1c(CC(=O)NN)c2cc(Br)ccc2n1Cc1ccccc1 [Example 50, 5-Bromo-2-methyl-1-(phenylmethyl)-1H-indole-3-acetic acid hydrazide] |
| 8460 ± 5450 nM | Cc1c(CC(=O)NN)c2cc(OCc3ccc4ccccc4n3)ccc2n1Cc1ccc(Cl)cc1 [Example 63, 1-[(4-Chlorophenyl)methyl]-2-methyl-5-[(2-quinolyl)methoxy]-1H-indole-3-acetic acid hydrazide] |
| 2060 ± 940 nM | Cc1c(CC(=O)NN)c2c(Br)cccc2n1Cc1ccccc1 [Example 53, 4-Bromo-2-methyl-1-(phenylmethyl)-1H-indole-3-acetic acid hydrazide] |
| 5900 ± 2990 nM | 5-Methoxy-1-(phenylmethyl)-1H-indole-3-propanoic acid hydrazide [Example 64] |

Second part, the compound before the results:

| Compound | IC50 |
| --- | --- |
| Cc1c(CC(=O)NN)c2ccc(Cl)cc2n1Cc1ccccc1 [Example 8, 6-Chloro-2-methyl-1-(phenylmethyl)-1H-indole-3-acetic acid hydrazide] | 1140 ± 440 nM |
| COc1ccc2c(c1)c(CC(=O)NN)c([S+](C)[O-])n2Cc1ccccc1 (centres unmarked) [Example 46, 5-Methoxy-2-methylsulfinyl-1-(phenylmethyl)-1H-indole-3-acetic acid hydrazide] | 46000 ± 24700 nM |
| COc1cccc(Cn2c(C)c(CC(=O)NN)c3cc(OC)ccc32)c1 [Example 27, 5-Methoxy-1-[(3-methoxyphenyl)methyl]-2-methyl-1H-indole-3-acetic acid hydrazide] | 2180 ± 510 nM |
| COc1ccc2c(c1)c(CC(=O)NN)c(C)n2CCCc1ccccc1 [Example 41, 5-Methoxy-2-methyl-1-(3-phenylpropyl)-1H-indole-3-acetic acid hydrazide] | 16800 ± 2890 nM |
| COc1ccc2c(c1)c(CC(=O)NN)c(C)n2CC(C)C [Example 13, 5-Methoxy-2-methyl-1-(2-methyl-1-propyl)-1H-indole-3-acetic acid hydrazide] | 9880 ± 3410 nM |
| CCOc1ccc2c(c1)c(CC(=O)NN)c(C)n2Cc1ccccc1 [Example 1, 5-Ethoxy-2-methyl-1-(phenylmethyl)-1H-indole-3-acetic acid hydrazide] | 800 ± 250 nM |
| COc1ccc2c(c1)c(CC(=O)NN)c(C)n2CCCCc1ccccc1 [Example 42, 5-Methoxy-2-methyl-1-(4-phenylbutyl)-1H-indole-3-acetic acid hydrazide] | 16500 ± 3580 nM |
| COc1ccc2c(c1)c(CC(=O)NN)c(C)n2Cc1ccccn1 [Example 37, 5-Methoxy-2-methyl-1-[(2-pyridyl)methyl]-1H-indole-3-acetic acid hydrazide] | 27200 ± 7890 nM |
| COc1ccc(Cn2c(C)c(CC(=O)NN)c3cc(OC)ccc32)cc1 [Example 28, 5-Methoxy-1-[(4-methoxyphenyl)methyl]-2-methyl-1H-indole-3-acetic acid hydrazide] | 11700 ± 4040 nM |
| COc1ccc2c(c1)c(CC(=O)NN)c(C)n2Cc1ccc2ccccc2n1 [Example 40, 5-Methoxy-2-methyl-1-[(2-quinolyl)methyl]-1H-indole-3-acetic acid hydrazide] | 8150 ± 3270 nM |
| COc1ccc2c(c1)c(CC(=O)NN)c(C)n2C(C)c1ccccc1 (centres unmarked) [Example 36, 5-Methoxy-2-methyl-1-(1-phenylethyl)-1H-indole-3-acetic acid hydrazide] | 5320 ± 1930 nM |
| CCc1c(CC(=O)NN)c2cc(F)ccc2n1Cc1ccccc1 [Example 7, 2-Ethyl-5-fluoro-1-(phenylmethyl)-1H-indole-3-acetic acid hydrazide] | 1520 ± 560 nM |
| CCCCCCCCCCCCCCCCCCn1c(C)c(CC(=O)NN)c2cc(OC)ccc21 [Example 15, 5-Methoxy-2-methyl-1-octadecyl-1H-indole-3-acetic acid hydrazide] | > 100000 nM |
| COc1ccc2c(c1)c(CC(=O)NN)cn2Cc1ccccc1-c1ccccc1 [Example 12, 1-([1,1'-Biphenyl]-2-ylmethyl)-5-methoxy-1H-indole-3-acetic acid hydrazide] | 5490 ± 4290 nM |
| COc1ccc2c(c1)c(CC(=O)NN)c(C)n2Cc1ccc(O)cc1 [Example 33, 1-[(4-Hydroxyphenyl)methyl]-5-methoxy-2-methyl-1H-indole-3-acetic acid hydrazide] | 5960 ± 2030 nM |
| CCc1c(CC(=O)NN)c2cc(C)ccc2n1Cc1ccccc1 [Example 6, 2-Ethyl-5-methyl-1-(phenylmethyl)-1H-indole-3-acetic acid hydrazide] | 670 ± 240 nM |
| COc1ccc2c(c1)c(CC(=O)NN)c(C)n2Cc1ccc(Cl)cc1 [Example 19, 1-(4-Chlorophenylmethyl)-5-methoxy-2-methyl-1H-indole-3-acetic acid hydrazide] | 9280 ± 2060 nM |
| COc1ccc2c(c1)c(CC(=O)NN)c(C)n2Cc1cccc(N)c1 [Example 35, 1-[(3-Aminophenyl)methyl]-5-methoxy-2-methyl-1H-indole-3-acetic acid hydrazide] | 7120 ± 4890 nM |
| CCCCCCCCCCOc1cccc(Cn2c(C)c(CC(=O)NN)c3cc(OC)ccc32)c1 [Example 29, 1-[(3-Decyloxyphenyl)methyl]-5-methoxy-2-methyl-1H-indole-3-acetic acid hydrazide] | 840 ± 310 nM |
| COc1ccc2c(c1)c(CC(=O)NN)c(C)n2Cc1ccccc1Cl [Example 17, 1-(2-Chlorophenylmethyl)-5-methoxy-2-methyl-1H-indole-3-acetic acid hydrazide] | 1710 ± 240 nM |
| Cc1c(CC(=O)NN)c2ccccc2n1Cc1ccccc1 [Example 10, 2-Methyl-1-(phenylmethyl)-1H-indole-3-acetic acid hydrazide] | 2360 ± 500 nM |
| COc1ccc2c(c1)c(CC(=O)NN)c(C)n2Cc1cccc([N+](=O)[O-])c1 [Example 34, 5-Methoxy-2-methyl-1-[(3-nitrophenyl)methyl]-1H-indole-3-acetic acid hydrazide] | 15200 ± 770 nM |
| COc1ccc2c(c1)c(CC(=O)NN)c(C)n2Cc1cccc(C(F)(F)F)c1 [Example 23, 5-Methoxy-2-methyl-1-[(3-trifluoromethylphenyl)methyl]-1H-indole-3-acetic acid hydrazide] | 890 ± 520 nM |
| NNC(=O)Cc1cn(Cc2ccccc2)c2ccc(OCc3ccccc3)cc12 [Example 9, 5-Benzyloxy-1-(phenylmethyl)-1H-indole-3-acetic acid hydrazide] | 2310 ± 650 nM |

Source: US5578634A, “1H-indole-3-acetic acid hydrazide sPLA2 inhibitors” (Eli Lilly and Company, priority 1995, dated 1996)
